Measured values taken from ChEMBL document CHEMBL3751669, “Structural refinement of pyrazolo[4,3-d]pyrimidine derivatives to obtain highly potent and selective antagonists for the human A3 adenosine receptor” (Eur J Med Chem, 2016).

Experiments:
[1] = biological target: T1, Adenosine receptor A2b (Homo sapiens) (UniProt P29275); assay: Antagonist activity at human A2B receptor expressed in CHO cells assessed as inhibition of NECA-stimulated cAMP production at 1 uM by scintillation counting method; assay type: functional, cell-based
T1 sequence (whole entry): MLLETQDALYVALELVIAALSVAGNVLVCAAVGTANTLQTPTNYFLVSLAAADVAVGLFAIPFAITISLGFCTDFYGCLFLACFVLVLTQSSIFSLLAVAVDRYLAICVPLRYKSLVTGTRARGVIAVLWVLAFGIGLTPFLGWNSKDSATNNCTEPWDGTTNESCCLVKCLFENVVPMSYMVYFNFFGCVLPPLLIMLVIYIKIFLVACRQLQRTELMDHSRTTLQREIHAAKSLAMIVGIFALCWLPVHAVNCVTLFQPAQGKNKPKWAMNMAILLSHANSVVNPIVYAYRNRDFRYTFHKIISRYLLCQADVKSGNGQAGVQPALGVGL

Adenosine receptor A3 [2] = biological target: T2, Adenosine receptor A3 (Homo sapiens, UniProt P0DMS8); assay: Displacement of [125I]AB-MECA at human […] receptor expressed in CHO cell membrane after 60 mins by scintillation counting method; assay type: cell membranes
T2 sequence (P0DMS8 whole entry): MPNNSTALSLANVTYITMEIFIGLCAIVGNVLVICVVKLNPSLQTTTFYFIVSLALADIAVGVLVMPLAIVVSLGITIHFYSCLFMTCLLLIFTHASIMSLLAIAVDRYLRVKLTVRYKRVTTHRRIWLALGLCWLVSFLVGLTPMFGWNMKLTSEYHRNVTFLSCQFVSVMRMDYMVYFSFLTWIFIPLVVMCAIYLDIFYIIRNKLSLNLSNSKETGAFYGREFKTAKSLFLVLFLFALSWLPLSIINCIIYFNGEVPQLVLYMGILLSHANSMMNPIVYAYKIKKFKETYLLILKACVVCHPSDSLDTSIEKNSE

Adenosine receptor A2a [3] = biological target: T3, Adenosine receptor A2a (Homo sapiens, UniProt P29274); assay: Displacement of [3H]ZM241385 at human A2A receptor expressed in CHO cell membrane at 1 uM after 60 mins by scintillation counting method; assay type: cell membranes
[4] = biological target: T4, Adenosine receptor A1 (Homo sapiens) (UniProt P30542); assay: Displacement of [3H]DPCPX at human A1 receptor expressed in CHO cell membrane at 1 uM after 120 mins by scintillation counting method; assay type: cell membranes
T4 sequence (whole entry): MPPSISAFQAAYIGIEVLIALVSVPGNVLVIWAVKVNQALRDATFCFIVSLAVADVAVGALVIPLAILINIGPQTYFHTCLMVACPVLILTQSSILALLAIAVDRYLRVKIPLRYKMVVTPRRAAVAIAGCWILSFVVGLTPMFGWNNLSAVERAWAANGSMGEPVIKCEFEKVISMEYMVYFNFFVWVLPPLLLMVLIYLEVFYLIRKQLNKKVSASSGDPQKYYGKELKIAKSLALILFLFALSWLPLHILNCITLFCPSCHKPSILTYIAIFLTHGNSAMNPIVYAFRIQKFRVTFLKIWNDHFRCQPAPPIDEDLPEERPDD

Adenosine receptor A2a [5] = biological target: T3, Adenosine receptor A2a; assay: Displacement of [3H]ZM241385 at human A2A receptor expressed in CHO cell membrane after 60 mins by scintillation counting method; assay type: cell membranes
Adenosine receptor A1 = biological target: T5, Adenosine receptor A1 (Homo sapiens, UniProt P30542); assay: Displacement of [3H]DPCPX at human A1 receptor expressed in CHO cell membrane after 120 mins by scintillation counting method; assay type: cell membranes
T5 sequence (P30542 whole entry): T4 sequence (whole entry)

[6] = biological target: T6, Adenosine receptor A3 (Homo sapiens) (UniProt P0DMS8); assay: Displacement of [125I]AB-MECA at human […] receptor expressed in CHO cell membrane at 1 uM after 60 mins by scintillation counting method; assay type: cell membranes
T6 sequence (whole entry): T2 sequence (P0DMS8 whole entry)

Adenosine receptor A3 [7] = biological target: T7, Adenosine receptor A3 (Rattus norvegicus, UniProt P28647); assay: Displacement of [125I]AB-MECA at rat A3 receptor expressed in HEK293 cells after 60 mins by scintillation counting method; assay type: cell-based
T7 sequence (P28647 whole entry): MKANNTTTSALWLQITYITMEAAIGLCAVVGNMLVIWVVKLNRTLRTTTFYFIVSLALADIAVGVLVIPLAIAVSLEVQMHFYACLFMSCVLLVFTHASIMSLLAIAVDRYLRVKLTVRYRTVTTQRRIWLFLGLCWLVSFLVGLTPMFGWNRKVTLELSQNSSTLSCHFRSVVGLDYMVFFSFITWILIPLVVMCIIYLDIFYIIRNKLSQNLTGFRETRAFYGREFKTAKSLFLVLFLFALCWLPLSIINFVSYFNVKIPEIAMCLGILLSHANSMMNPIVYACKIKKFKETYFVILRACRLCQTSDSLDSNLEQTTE

Adenosine receptor A3 [8] = biological target: T2, Adenosine receptor A3; assay: Antagonist activity at human A3 receptor expressed in CHO cells assessed as inhibition of Cl-IB-MECA-induced cAMP production by scintillation counting method; assay type: functional, cell-based

T3 sequence (P29274 whole entry): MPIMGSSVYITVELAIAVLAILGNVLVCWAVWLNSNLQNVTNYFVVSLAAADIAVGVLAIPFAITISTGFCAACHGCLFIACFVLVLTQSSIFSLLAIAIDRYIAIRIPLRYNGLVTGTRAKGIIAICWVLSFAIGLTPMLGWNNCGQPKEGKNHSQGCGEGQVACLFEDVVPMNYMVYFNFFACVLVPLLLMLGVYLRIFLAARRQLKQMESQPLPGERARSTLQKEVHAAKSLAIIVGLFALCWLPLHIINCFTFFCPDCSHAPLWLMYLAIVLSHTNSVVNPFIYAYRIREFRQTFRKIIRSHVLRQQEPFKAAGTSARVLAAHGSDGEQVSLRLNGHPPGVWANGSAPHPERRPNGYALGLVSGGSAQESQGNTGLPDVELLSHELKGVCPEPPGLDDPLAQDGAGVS

SMILES	inhibition [1] [%]	Ki (Adenosine receptor A3 [2]) [nM]	inhibition (Adenosine receptor A2a [3]) [%]	inhibition [4] [%]	Ki (Adenosine receptor A2a [5]) [nM]	Ki (Adenosine receptor A1) [nM]	inhibition [6] [%]	Ki (Adenosine receptor A3 [7]) [nM]	IC50 (Adenosine receptor A3 [8]) [nM]
Cc1nc2cn(-c3ccccc3)nc2c(=O)[nH]1	3								
COc1ccc(-c2nc(N)c3nn(-c4ccc(OC)cc4)cc3n2)cc1	1	17	3	1					
O=C(Nc1nc(-c2ccccc2)nc2cn(Cc3ccccc3)nc12)c1ccccc1	2	223	24	36					
Nc1nc(-c2ccc(O)cc2)nc2cn(-c3ccccc3)nc12	7	432	33	31					
Nc1nc(-c2ccccc2)nc2cn(Cc3ccccc3)nc12	1	54			300	250			
Nc1nc(-c2ccc(Cl)cc2)nc2cn(-c3ccccc3)nc12	3		1	13			4		
Cc1ccc(-c2nc3cn(-c4ccccc4)nc3c(=O)[nH]2)o1	1	868	15	1					
COc1ccc(-c2nc(NC(=O)c3ccncc3)c3nn(-c4ccccc4)cc3n2)cc1	1	9.83	1	3				> 10000	39
Cc1nc(N)c2nn(-c3ccccc3)nc2n1	1		6			213	1		
COc1ccc(-c2nc(N)c3nn(-c4ccccc4)cc3n2)cc1	2	33	1	33					
O=c1[nH]c(-c2ccccc2)nc2cn(-c3ccccc3)nc12	5								
COc1ccc(C(=O)Nc2nc(-c3ccc(OC)cc3)nc3cn(-c4ccccc4)nc23)cc1	1	1.31	1	3				> 10000	4.27
Nc1nc(-c2cccs2)nc2cn(-c3ccccc3)nc12	27	9.7			115	52			
O=C(Cc1ccccc1)Nc1nc(-c2ccccc2)nc2cn(Cc3ccccc3)nc12	1	202	9	7					
O=c1[nH]c(-c2cccs2)nc2cn(-c3ccccc3)nc12	1	413	14	6					
Nc1nc(Cc2cccs2)nc2cn(-c3ccccc3)nc12	1	250	35			400			
COc1ccc(C(=O)Nc2nc(-c3cccs3)nc3cn(-c4ccccc4)nc23)cc1	1	0.027	1	1				> 10000	0.11
O=C(Nc1nc(-c2ccccc2)nc2cn(-c3ccccc3)nc12)c1cccs1	1	5.87	1	18					13
Cc1nc2cn(Cc3ccccc3)nc2c(=O)[nH]1	1	485	1	6					
O=C(Nc1nc(-c2cccs2)nc2cn(-c3ccccc3)nc12)c1ccccc1	1	2.12	1	1				> 10000	5.32

SMILES	inhibition [1] [%]	Ki (Adenosine receptor A3 [2]) [nM]	inhibition (Adenosine receptor A2a [3]) [%]	inhibition [4] [%]	Ki (Adenosine receptor A2a [5]) [nM]	Ki (Adenosine receptor A1) [nM]	inhibition [6] [%]	Ki (Adenosine receptor A3 [7]) [nM]	IC50 (Adenosine receptor A3 [8]) [nM]
O=c1[nH]c(-c2ccccc2)nc2cn(Cc3ccccc3)nc12	1	130	1	6					
O=C(Cc1ccccc1)Nc1nc(-c2cccs2)nc2cn(-c3ccccc3)nc12	1	3.53	1	32					8.45
Cc1nc2nn(-c3ccccc3)nc2c(=O)[nH]1	1	321	14	32					
Cc1nc2cn(C)nc2c(=O)[nH]1	1		1	1			1		
Cn1cc2nc(-c3ccccc3)nc(N)c2n1	1		1	31			1		
COc1ccc(-n2cc3nc(-c4cccs4)[nH]c(=O)c3n2)cc1	1	247	1	5					
O=C(Nc1nc(-c2cccs2)nc2cn(-c3ccccc3)nc12)c1ccco1	1	2.34	21			552			5.47
COc1ccc(-n2cc3nc(-c4cccs4)nc(N)c3n2)cc1	31	78	35	28					
COc1ccc(-c2nc3cn(C)nc3c(=O)[nH]2)cc1	1		1	2			1		
O=C(Nc1nc(-c2cccs2)nc2cn(-c3ccccc3)nc12)c1ccncc1	1	9.54	1	20				> 10000	37
Cc1nc2cn(-c3ccccc3F)nc2c(=O)[nH]1	1	225	1	1					
Nc1nc(-c2ccccc2)nc2nn(-c3ccccc3)nc12	1		3	38			1		
O=C(c1ccco1)N(C(=O)c1ccco1)c1nc(-c2cccs2)nc2cn(-c3ccccc3)nc12	1	1.82	2			687			4.37
O=C(Nc1nc(-c2cccs2)nc2cn(-c3ccccc3)nc12)c1cccs1	1	2.43	7			466			5.59
COc1ccc(-c2nc(NC(=O)c3ccccc3)c3nn(-c4ccccc4)cc3n2)cc1	1	6.42	1	2				> 10000	26
O=C(Nc1nc(-c2cccs2)nc2cn(-c3ccccc3)nc12)c1cccnc1	1	0.41	3			764			1.01
O=c1[nH]c(-c2ccccc2)nc2nn(-c3ccccc3)nc12	1		11	8			23		
Cn1cc2nc(-c3ccccc3)[nH]c(=O)c2n1	1		1	1			20		
O=c1[nH]c(-c2ccco2)nc2cn(-c3ccccc3)nc12	1		12	1			30		
